The record followed here is patent publication US20210130769A1, “Method for Single Cell Encapsulation via Metabolic Glycoengineering and Copper-Free Click Chemistry” (The Board of Trustees Of the Leland Stanford Junior …, priority 2019, published 2021).

“Also recorded” adds a separate entry of the source.

For the experiment, the system named is actin polymerization. The experiment in a line: Inhibition study: actin polymerization inhibitor/activator, VEGFB ELISA. The note with it: 24 hr. In kind it is cell-based, human. The method, then:
After cell encapsulation with two different molecular weight polymers such as 5 kDa and 30 kDa, the cells were rinsed and resuspended in the media containing actin polymerization inhibitor (Cytochalastin D (CytoD): 2 μM) and activator (lysophosphatidic (LPA): […] After the incubation for 24 hr with different pharmacological chemicals, the supernatants from different treatment groups were collected to measure VEGFB production from the cells using ELISAs as above.

For the molecule `C=C1[C@@H](C)[C@H]2[C@H](Cc3ccccc3)NC(=O)[C@]23[C@H](OC(C)=O)/C=C/[C@@](C)(O)C(=O)[C@@H](C)C/C=C/[C@H]3[C@@H]1O` [CytoD, Cytochalastin D], for the setting “2 μM CytoD”, the “VEGFB concentration in NPCs coated with 30 kDa PEG” value was “not significantly different” and the “VEGFB production in NPCs coated with 5 kDa PEG” value is “significantly different from other groups; also recorded: increased VEGFB production”.
In the case of lysophosphatidic acid [LPA], the “VEGFB production in 30 kDa encapsulated NPCs” value (LPA) is “significantly different from other groups; also recorded: decreased production of VEGFB”.
